Measured values from the NIST ThermoML archive (doi:10.1007/s10765-015-2009-x).
Numbers after ± are expanded uncertainties.

Test: mn = molality of the nth substance listed, in mol/kg
Conditions: 101 kPa, Liquid, Pycnometric method

## Cl.N[C@@H](CCC(=O)O)C(=O)O [L-glutamic acid hydrochloride] + O
298.15 K, m1 = 0.01009
  mass density: 1000 ± 0.3 kg/m3
298.15 K, m1 = 0.02021
  mass density: 1000.9 ± 0.3 kg/m3
298.15 K, m1 = 0.02997
  mass density: 1001.6 ± 0.3 kg/m3
298.15 K, m1 = 0.03992
  mass density: 1002.3 ± 0.3 kg/m3
298.15 K, m1 = 0.05011
  mass density: 1002.9 ± 0.3 kg/m3
298.15 K, m1 = 0.06005
  mass density: 1003.6 ± 0.3 kg/m3
303.15 K, m1 = 0.01009
  mass density: 998.9 ± 0.3 kg/m3
303.15 K, m1 = 0.02021
  mass density: 999.9 ± 0.3 kg/m3
303.15 K, m1 = 0.02997
  mass density: 1000.6 ± 0.3 kg/m3
303.15 K, m1 = 0.03992
  mass density: 1001.2 ± 0.3 kg/m3
303.15 K, m1 = 0.05011
  mass density: 1001.8 ± 0.3 kg/m3
303.15 K, m1 = 0.06005
  mass density: 1002.4 ± 0.3 kg/m3
308.15 K, m1 = 0.01009
  mass density: 997.6 ± 0.3 kg/m3
308.15 K, m1 = 0.02021
  mass density: 998.7 ± 0.3 kg/m3
308.15 K, m1 = 0.02997
  mass density: 999.4 ± 0.3 kg/m3
308.15 K, m1 = 0.03992
  mass density: 1000 ± 0.3 kg/m3
308.15 K, m1 = 0.05011
  mass density: 1000.6 ± 0.3 kg/m3
308.15 K, m1 = 0.06005
  mass density: 1001.1 ± 0.3 kg/m3
313.15 K, m1 = 0.01009
  mass density: 996.1 ± 0.3 kg/m3
313.15 K, m1 = 0.02021
  mass density: 997.3 ± 0.3 kg/m3
313.15 K, m1 = 0.02997
  mass density: 998 ± 0.3 kg/m3
313.15 K, m1 = 0.03992
  mass density: 998.6 ± 0.3 kg/m3
313.15 K, m1 = 0.05011
  mass density: 999.2 ± 0.3 kg/m3
313.15 K, m1 = 0.06005
  mass density: 999.8 ± 0.3 kg/m3
